We go through eight compounds from PubChem BioAssay (NCI).

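Values below derive from 48-hour exposures of cells grown in 96-well plates, with endpoints linearly interpolated between the two concentrations bracketing the appropriate inhibition level. Here, GI50 denotes the concentration required for 50% inhibition of growth. Definition used: TGI = concentration required for complete inhibition of growth.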

Some test systems named below: MDA-MB-231 breast; HL-60(TB) leukemia; SK-OV-3 ovarian; EKVX NSCLC; HT29 colon; KM12 colon; SN12C renal; HCT-15 colon; NCI-H23 lung; OVCAR-3 ovarian.
Common to all, as to assay: inhibition of tumour cell growth, NCI panel, 48 h

On to `CCOC(=O)C(=Cc1c(-c2ccccc2)[nH]c2ccccc12)C(=O)OCC`, for which the GI50 was 5.71 µM in the test on MDA-MB-231 breast; 4.19 µM in the test with HL-60(TB) leukemia; 13.6 µM in the test on SK-OV-3 ovarian; 10.8 µM in the test with EKVX NSCLC; 4.56 µM with HT29 colon; 3.51 µM in the test on KM12 colon. The GI50 in the test with SN12C renal is 5.04 µM; with HCT-15 colon it was 4.07 µM; in the test on NCI-H23 lung, 2.56 µM; with OVCAR-3 ovarian, 4.21 µM. In addition, the TGI with MDA-MB-231 breast is 34.8 µM; in the test with HL-60(TB) leukemia, 35.5 µM; in the test with SK-OV-3 ovarian, 49.2 µM; with EKVX NSCLC it was 54.1 µM; in the test with HT29 colon it was 17.1 µM; in the test with KM12 colon it was 12 µM. The TGI with SN12C renal was determined as 55 µM; in the test on HCT-15 colon, 38.4 µM; with NCI-H23 lung, 11.7 µM; in the test on OVCAR-3 ovarian, 22.6 µM.
Regarding `Cc1cc2c(-c3nc4ccccn4c3NC34CC5CC(CC(C5)C3)C4)c(O)c(O)cc2c(O)c1-c1c(C)cc2c(-c3nc4ccccn4c3NC34CC5CC(CC(C5)C3)C4)c(O)c(O)cc2c1O`, the GI50 was 0.763 µM in the test on MDA-MB-231 breast; 0.789 µM in the test on HL-60(TB) leukemia; 0.749 µM in the test with SK-OV-3 ovarian; 0.454 µM in the test on EKVX NSCLC; 0.788 µM with HT29 colon; 0.11 µM with KM12 colon. The GI50 with SN12C renal was 0.716 µM; in the test on HCT-15 colon, 0.466 µM; in the test with NCI-H23 lung, 0.137 µM; in the test on OVCAR-3 ovarian it was 0.617 µM. Besides, the TGI in the test with MDA-MB-231 breast was 11.4 µM; with HL-60(TB) leukemia, 11.5 µM; with SK-OV-3 ovarian, 2.3 µM; in the test on EKVX NSCLC it was greater than 25 µM; in the test with HT29 colon it was greater than 25 µM; with KM12 colon, 11.7 µM. In addition, the TGI in the test on SN12C renal was greater than 25 µM; in the test with HCT-15 colon, greater than 25 µM; in the test on NCI-H23 lung, 3.09 µM; in the test on OVCAR-3 ovarian, 8.3 µM.
Turning to `COC12C=C/C(=C(/C(=O)OCc3csc(SC)n3)C(=O)CCCCCCCCC3(OC)C=C/C(=C(/C(=O)OCc4cnc(SC)s4)C(=O)CCCCCCCC1)O3)O2` (centres undefined), the GI50 in the test with MDA-MB-231 breast was 2.51 µM; with HL-60(TB) leukemia it was 3.1 µM; with SK-OV-3 ovarian it was 9.06 µM; with EKVX NSCLC, 6.38 µM; in the test on HT29 colon, 4.41 µM; in the test with KM12 colon, 3.1 µM. Moreover, the GI50 in the test on SN12C renal is 3.63 µM; in the test with HCT-15 colon, 17 µM; in the test with NCI-H23 lung, 2.5 µM; with OVCAR-3 ovarian it was 2.74 µM. Further, the TGI in the test on MDA-MB-231 breast was 26.2 µM; in the test with HL-60(TB) leukemia, greater than 100 µM; with SK-OV-3 ovarian, greater than 100 µM; with EKVX NSCLC, greater than 100 µM; with HT29 colon, greater than 100 µM; in the test with KM12 colon, greater than 100 µM. In addition, the TGI with SN12C renal, in the test with HCT-15 colon, in the test on NCI-H23 lung and in the test on OVCAR-3 ovarian was greater than 100 µM throughout.
As to `COc1ccc(-c2nn(-c3cccc(Cl)c3)cc2/C=C2\C(=N)N(c3ccccc3)N=C2N)cc1`, the GI50 is 1.25 µM in the test on MDA-MB-231 breast; 0.414 µM in the test on HL-60(TB) leukemia; 34.7 µM in the test on SK-OV-3 ovarian; 1.5 µM in the test with EKVX NSCLC; 2.57 µM with HT29 colon; 0.2 µM in the test on KM12 colon. Further, the GI50 is 3.33 µM with SN12C renal, 0.489 µM in the test on HCT-15 colon, 4.62 µM with NCI-H23 lung and 3.09 µM in the test on OVCAR-3 ovarian. Further, the TGI with MDA-MB-231 breast was 28.7 µM; with HL-60(TB) leukemia it was 9.24 µM; in the test on SK-OV-3 ovarian, greater than 100 µM; in the test with EKVX NSCLC, 60.5 µM; with HT29 colon, 24.5 µM; with KM12 colon it was 1.79 µM. Moreover, the TGI in the test on SN12C renal is greater than 100 µM; in the test on HCT-15 colon it was 26 µM; in the test on NCI-H23 lung it was 43.5 µM; in the test on OVCAR-3 ovarian it was 20.4 µM.
For the compound `COc1ccc2nc3cc(Cl)ccc3c(Nc3ccc(O)c(CN4CCCC4)c3)c2c1`, the GI50 with MDA-MB-231 breast is 1.66 µM; in the test with HL-60(TB) leukemia it was 2.18 µM; with SK-OV-3 ovarian, 6.21 µM; in the test on EKVX NSCLC it was 3.18 µM; in the test with HT29 colon, 1.32 µM; with KM12 colon, 3.13 µM. Besides, the GI50 with SN12C renal was 1.84 µM; in the test on HCT-15 colon, 2.6 µM; with NCI-H23 lung it was 2.22 µM; in the test on OVCAR-3 ovarian it was 3.54 µM. For the same compound, the TGI with MDA-MB-231 breast is 3.84 µM; in the test on HL-60(TB) leukemia, 6.08 µM; in the test on SK-OV-3 ovarian it was 19 µM; in the test on EKVX NSCLC, 14.4 µM; in the test with HT29 colon it was 3.44 µM; in the test on KM12 colon it was greater than 100 µM. The TGI in the test on SN12C renal came to 4.56 µM; in the test on HCT-15 colon, 10.3 µM; in the test on NCI-H23 lung it was 7.08 µM; with OVCAR-3 ovarian, 15 µM.
`NC(=O)c1c(NC(=O)c2cccc(C(F)(F)F)c2)sc2c1CCC(=O)C2`: the GI50 in the test with MDA-MB-231 breast is 0.379 µM; in the test with HL-60(TB) leukemia, 0.442 µM; in the test with SK-OV-3 ovarian, 2.8 µM; in the test with EKVX NSCLC, 2.12 µM; with HT29 colon it was 0.378 µM; with KM12 colon, 0.394 µM. Further, the GI50 in the test on SN12C renal was 0.392 µM; in the test with HCT-15 colon, 0.321 µM; in the test on NCI-H23 lung, 0.317 µM; in the test with OVCAR-3 ovarian, 0.364 µM. Further, the TGI with MDA-MB-231 breast was 2.73 µM; in the test on HL-60(TB) leukemia, 6.2 µM; with SK-OV-3 ovarian, 8.39 µM; in the test on EKVX NSCLC, greater than 100 µM; in the test on HT29 colon, greater than 100 µM; in the test on KM12 colon, 2.01 µM. Besides, the TGI with SN12C renal is greater than 100 µM; with HCT-15 colon, 1.82 µM; in the test on NCI-H23 lung, 4.29 µM; with OVCAR-3 ovarian, 1.34 µM.
As for `COC(=O)C1=C(C(=O)OC)C(C(=O)OC)C(C(=O)OC)C(C(=O)OC)(C(=O)OC)C(C(=O)OC)=C1C(=O)OC` (centres undefined), the TGI with MDA-MB-231 breast is 40.1 µM; with HL-60(TB) leukemia, 4.95 µM; with SK-OV-3 ovarian, 55.6 µM; in the test with EKVX NSCLC, 35.4 µM; in the test with HT29 colon, 35.3 µM; with KM12 colon, 31.3 µM. In addition, the TGI in the test with SN12C renal is 27.5 µM; with HCT-15 colon, 21.2 µM; in the test on NCI-H23 lung, 35.8 µM; in the test on OVCAR-3 ovarian it was 28.9 µM.
As to `CC(=O)c1c(Nc2ccc(F)c(F)c2F)[nH]c2c(F)cc(F)cc2c1=O`, the GI50 is 0.285 µM in the test with MDA-MB-231 breast; 0.372 µM with HL-60(TB) leukemia; 0.297 µM with SK-OV-3 ovarian; 0.303 µM in the test with EKVX NSCLC; 0.356 µM in the test with HT29 colon; 0.342 µM with KM12 colon. The GI50 with SN12C renal is 0.277 µM; in the test with HCT-15 colon it was 0.331 µM; with NCI-H23 lung, 0.286 µM; in the test with OVCAR-3 ovarian, 0.311 µM. Moreover, the TGI is 1.77 µM in the test on MDA-MB-231 breast; 3.24 µM in the test on SK-OV-3 ovarian; greater than 40.4 µM in the test with EKVX NSCLC; 17.5 µM in the test on HT29 colon; 5.57 µM in the test with KM12 colon; 3.45 µM in the test with SN12C renal. Further, the TGI in the test with HCT-15 colon was found to be 1.73 µM; with NCI-H23 lung, 4.41 µM; in the test on OVCAR-3 ovarian it was 11.6 µM.
